One compound from publication PMC9011347, “Small-Molecule Inhibitors Targeting Lipolysis in Human Adipocytes” (Journal of the American Chemical Society, 2022) can be followed below.

The subject of this assay is HepG2^AKO cells. Description: Seahorse cellular respiration (OCR) in ATGL knockout cells. In kind it is cell-based, human. To be noted: NG-497 40 μM, galactose medium. On the procedure: (a) HepG2 cells were treated with NG-497 (40 μM) or DMSO as control and oxygen consumption rate (OCR) was determined in Seahorse growth medium supplemented with glucose (25 mM) using the SeaHorse XF96 extracellular flux analyzer. OCR was determined after subsequent addition of 1 μM Oligomycin (ATP-synthase inhibitor), 1 μM FCCP (uncoupler), and 1 μM antimycin/rotenone (electron transport chain inhibitors). (b) Statistical analysis of basal respiration (BR), maximal respiration (MR), proton leak (PL), ATP production (ATPP), spare respiratory capacity (SRC), and nonmitochondrial oxygen consumption (NMOC) of control and NG-497-treated cells. (c) Extracellular acidification rate (ECAR) and (d) OCR of HepG2 cells were determined in Seahorse growth medium supplemented with glucose (25 mM) or galactose (10 mM). […] Growth of cells expressing (HepG2^control) or lacking functional ATGL (HepG2^AKO) was determined using a BioRad cell analyzer. ATGL expression was analyzed by Western blotting analysis using an anti-ATGL antibody and GAPDH as a loading control (inset). (h) Acylglycerol content of HepG2^control and HepG2^AKO cells was determined by a commercial kit (TG Infinity reagent, Thermo Fisher Scientific). […] Statistical significance was determined via Student’s t test (*p < 0.05; **p < 0.01; ***p < 0.001) or ANOVA followed by Bonferroni post hoc test (^#p < 0.05; ^##p < 0.01; ^###p < 0.001). […]

In the case of `CCOc1ccc(-c2cc(OC)cc(C(=O)OC(C)C)n2)cc1` [NG-497], the effect on respiration entry is on record as “no effect on respiration”.
